The values that follow come from patent publication US4871852A, “Quinoline-carboxylic acid derivatives” (Daiichi Seiyaku Co., Ltd., priority 1984, dated 1989).

Data set [1] deals with Streptococcus faecalis ATCC 19433. The data set can be described thus: Minimum Inhibitory Concentration (standard method of the Japan Society of Chemotherapy). The format is cell-based. The conditions noted are these: Enterococcus faecalis, read-out: Minimum Inhibitory Concentration (MIC). The method, then: (§1) Determined by the standard method of the Japan Society of Chemotherapy: i
(§2) MullerHinton bouillon, 10^6 /ml of bacteria were seeded and incubated
(§3) at 37° C. for 18 hours.

Data set [2] concerns Serratia marcessens 13001. The data set is described as above. It is filed as cell-based. The conditions noted are these: Muller-Hinton bouillon, 10^6/ml bacteria, 37° C., 18 hours. The method, then: as §1, §2, §3
For data set [3], the system named is Staphylococcus aureus Smith. The data set is described as above. The conditions noted are these: read-out: Minimum Inhibitory Concentration (MIC). It is filed as cell-based. The procedure:
as §1, §2, §3

Data set [4] deals with Escherichia coli NIHJ. The description is as above. It is filed as cell-based. The conditions noted are these: Muller-Hinton bouillon, 10^6/ml bacteria, 37° C., 18 hours. The procedure: as §1, §2, §3
Data set [5] concerns Staphylococcus epidermidis 56556. The data set is described as above. It is filed as cell-based. The conditions noted are these: read-out: Minimum Inhibitory Concentration (MIC). The procedure: as §1, §2, §3
The subject of data set [6] is Proteus vulgaris 3167. The data set is described as above. It is filed as cell-based. The conditions noted are these: read-out: Minimum Inhibitory Concentration (MIC). The procedure:
as §1, §2, §3

Data set [7] has as its system Pseudomonas aeruginosa 2131. Described as above. The format is cell-based. The settings on record: read-out: Minimum Inhibitory Concentration (MIC). The procedure: as §1, §2, §3
The test system of data set [8] is Pseudomonas maltophilia IID 1275. The data set is described as above. The format is cell-based. The settings on record: Stenotrophomonas maltophilia, read-out: Minimum Inhibitory Concentration (MIC). The procedure: as §1, §2, §3
The test system of data set [9] is Pseudomonas cepacia IID 1340. Described as above. The format is cell-based. The settings on record: Burkholderia cepacia, read-out: Minimum Inhibitory Concentration (MIC). The method, then:
as §1, §2, §3

Data set [10] is described as follows: pharmacokinetic properties: blood level, intestinal absorption (statement in words). The settings on record: in comparison with cyprofloxacin. It is filed as in vivo.
Data set [11] concerns gram-positive and gram-negative bacteria. The data set can be described thus: antibacterial activity (statement in words). The format is cell-based.
The mark [12] stands for this setting: ATCC19433, Streptococcus faecalis ATCC 19433, Muller-Hinton bouillon, 10^6/ml bacteria, 37° C., 18 hours.
Where [13] appears, read: Staphylococcus aureus Smith, Muller-Hinton bouillon, 10^6/ml bacteria, 37° C., 18 hours.
Where [14] appears, read: Staphylococcus epidermidis 56556, Muller-Hinton bouillon, 10^6/ml bacteria, 37° C., 18 hours.
[15] abbreviates: Proteus vulgaris 3167, Muller-Hinton bouillon, 10^6/ml bacteria, 37° C., 18 hours.
Where [16] appears, read: Pseudomonas aeruginosa 2131, Muller-Hinton bouillon, 10^6/ml bacteria, 37° C., 18 hours.
The mark [17] stands for this setting: IID1275, Pseudomonas maltophilia IID 1275, Muller-Hinton bouillon, 10^6/ml bacteria, 37° C., 18 hours.
[18] abbreviates: IID1340, Pseudomonas cepacia IID 1340, Muller-Hinton bouillon, 10^6/ml bacteria, 37° C., 18 hours.

Each structure is given as a SMILES string. Values after ≈ are worked out from the molar mass of the structure shown. Read-outs that look alike come from different tables or passages of the source. A value given as a limit tells only on which side of the number the result lay.

In the case of `O=C(O)c1cn([C@@H]2C[C@@H]2F)c2cc(N3CCNCC3)c(F)cc2c1=O` (relative stereo) [Ia-2, 1-(cis-2-fluorocyclopropyl)-6-fluoro-1,4-dihydro-7-(1-piperazinyl)-4-oxoquinoline-3-carboxylic acid], the MIC in [1] (setting [12]) is 1.56 µg/mL (≈ 4.47 µM); in [2] it was at most 0.05 µg/mL; in [3] (setting [13]), 0.1 µg/mL (≈ 0.286 µM); in [4], at most 0.05 µg/mL; in data set [5] (setting [14]) it was 0.2 µg/mL (≈ 0.573 µM); in data set [6] (setting [15]), at most 0.05 µg/mL. Also, the MIC in data set [7] (setting [16]) was at most 0.05 µg/mL; in data set [8] (setting [17]), 0.78 µg/mL (≈ 2.23 µM); in data set [9] (setting [18]) it was 1.56 µg/mL (≈ 4.47 µM).
In the case of `O=C(O)c1cn(C2CC2)c2cc(N3CCNCC3)c(F)cc2c1=O` [Ba-2, 1-cyclopropyl-6-fluoro-1,4-dihydro-7-(1-piperazinyl)-4-oxoquinoline-3-carboxylic acid, reference compound], the MIC in [1] (ATCC19433, 18 h) was 0.78 µg/mL (≈ 2.35 µM); in data set [2], at most 0.05 µg/mL; in [3] (Staphylococcus aureus, 18 h), 0.1 µg/mL (≈ 0.302 µM); in data set [4], at most 0.05 µg/mL; in data set [5] (Staphylococcus epidermidis, 56556, 18 h) it was 0.2 µg/mL (≈ 0.604 µM); in [6] (Proteus vulgaris, 3167, 18 h) it was at most 0.05 µg/mL. For the same compound, the MIC is at most 0.05 µg/mL in data set [7] (Pseudomonas aeruginosa, 2131, 18 h); 0.78 µg/mL (≈ 2.35 µM) in data set [8] (IID1275, 18 h); 3.13 µg/mL (≈ 9.45 µM) in data set [9] (IID1340, 18 h).
Consider `CN1CCN(c2c(F)cc3c(=O)c(C(=O)O)cn([C@@H]4C[C@@H]4F)c3c2F)CC1` (relative stereo) [Ib-1, 1-(2-fluorocyclopropyl)-6,8-difluoro-1,4-dihydro-7-(4-methyl-1-piperazinyl)-4-oxoquinoline-3-carboxylic acid], for which the MIC in [1] (setting [12]) is 0.78 µg/mL (≈ 2.05 µM); in [2], at most 0.05 µg/mL; in [3] (setting [13]), 0.1 µg/mL (≈ 0.262 µM); in data set [4], at most 0.05 µg/mL; in data set [5] (setting [14]), 0.2 µg/mL (≈ 0.524 µM); in data set [6] (setting [15]), at most 0.05 µg/mL. For the same compound, the MIC in [7] (setting [16]) was 0.1 µg/mL (≈ 0.262 µM); in [8] (setting [17]), 0.1 µg/mL (≈ 0.262 µM); in data set [9] (setting [18]), 0.78 µg/mL (≈ 2.05 µM).
Take `CN1CCN(c2cc3c(cc2F)c(=O)c(C(=O)O)cn3[C@@H]2C[C@@H]2F)CC1` (relative stereo) [Ia-1, 1-(cis-2-fluorocyclopropyl)-6-fluoro-1,4-dihydro-7-(4-methyl-1-piperazinyl)-4-oxoquinoline-3-carboxylic acid]: in data set [10], the blood level result is “high blood level”. Also, the intestinal absorption result in [10] is “good intestinal absorption”. Moreover, the MIC is 0.78 µg/mL (≈ 2.15 µM) in [1] (setting [12]); at most 0.05 µg/mL in data set [2]; at most 0.05 µg/mL in data set [3] (setting [13]); at most 0.05 µg/mL in data set [4]; 0.1 µg/mL (≈ 0.275 µM) in data set [5] (setting [14]); at most 0.05 µg/mL in data set [6] (setting [15]). The MIC in data set [7] (setting [16]), in data set [8] (setting [17]) and in [9] (setting [18]) was 0.2 µg/mL (≈ 0.55 µM) throughout. In addition, the antibacterial activity entry in data set [11] is on record as “strong antibacterial activity”.
Consider `O=C(O)c1cn([C@@H]2C[C@@H]2F)c2c(F)c(N3CCNCC3)c(F)cc2c1=O` (relative stereo) [Ib-2, 1-(2-fluorocyclopropyl)-6,8-difluoro-1,4-dihydro-7-(1-piperazinyl)-4-oxoquinoline-3-carboxylic acid], for which the MIC in data set [1] (setting [12]) is 1.56 µg/mL (≈ 4.25 µM); in [2] it was at most 0.05 µg/mL; in data set [3] (setting [13]) it was 0.1 µg/mL (≈ 0.272 µM); in data set [4], at most 0.05 µg/mL; in data set [5] (setting [14]), 0.2 µg/mL (≈ 0.544 µM); in data set [6] (setting [15]) it was at most 0.05 µg/mL. Also, the MIC in [7] (setting [16]) was at most 0.05 µg/mL; in [8] (setting [17]), 0.78 µg/mL (≈ 2.12 µM); in [9] (setting [18]), 1.56 µg/mL (≈ 4.25 µM).
For the compound `O=C(O)c1cn(C2CC2)c2c(F)c(N3CCNCC3)c(F)cc2c1=O` [Ba-4, 1cyclopropyl-6,8-difluoro-1,4-dihydro-7-(1-piperazinyl)-4-oxoquinoline-3-carboxylic acid, reference compound], the MIC was 0.78 µg/mL (≈ 2.23 µM) in [1] (setting [12]); at most 0.05 µg/mL in [2]; 0.2 µg/mL (≈ 0.573 µM) in [3] (setting [13]); at most 0.05 µg/mL in data set [4]; 0.2 µg/mL (≈ 0.573 µM) in [5] (setting [14]); at most 0.05 µg/mL in [6] (setting [15]). Moreover, the MIC in data set [7] (setting [16]) was at most 0.05 µg/mL; in data set [8] (setting [17]), 0.39 µg/mL (≈ 1.12 µM); in data set [9] (setting [18]), 0.39 µg/mL (≈ 1.12 µM).
For the compound `CN1CCN(c2c(F)cc3c(=O)c(C(=O)O)cn(C4CC4)c3c2F)CC1` [Ba-3, 1cyclopropyl-6,8-difluoro-1,4-dihydro-7-(4-methyl-1-piperazinyl)-4-oxoquinoline-3-carboxylic acid, reference compound], the MIC in data set [1] (setting [12]) is 0.78 µg/mL (≈ 2.15 µM); in [2], at most 0.05 µg/mL; in data set [3] (setting [13]), 0.2 µg/mL (≈ 0.55 µM); in [4], at most 0.05 µg/mL; in data set [5] (setting [14]), 0.2 µg/mL (≈ 0.55 µM); in data set [6] (setting [15]), at most 0.05 µg/mL. For the same compound, the values for the MIC in [7] (setting [16]), in data set [8] (setting [17]) and in [9] (setting [18]) were 0.2 µg/mL (≈ 0.55 µM), at most 0.05 µg/mL and 0.78 µg/mL (≈ 2.15 µM), respectively.
For the compound `CN1CCN(c2cc3c(cc2F)c(=O)c(C(=O)O)cn3C2CC2)CC1` [Ba-1, 1cyclopropyl-6-fluoro-1,4-dihydro-7-(4-methyl-1-piperazinyl)-4-oxoquinoline-3-carboxylic acid, reference compound], the MIC is 0.78 µg/mL (≈ 2.26 µM) in data set [1] (setting [12]); 0.1 µg/mL (≈ 0.29 µM) in data set [2]; 0.2 µg/mL (≈ 0.579 µM) in data set [3] (setting [13]); at most 0.05 µg/mL in data set [4]; 0.39 µg/mL (≈ 1.13 µM) in data set [5] (setting [14]); at most 0.05 µg/mL in [6] (setting [15]). The MIC came out at 0.1 µg/mL (≈ 0.29 µM) in [7] (setting [16]), 0.2 µg/mL (≈ 0.579 µM) in data set [8] (setting [17]) and 0.78 µg/mL (≈ 2.26 µM) in data set [9] (setting [18]).
